Measured values published in US20240279220A1, “INDOLE COMPOUNDS AND METHODS OF USE” (Genzyme Corporation, priority 2021, published 2024).

Columns and labels:
CFTR = biological target: T1, CFTR (Homo sapiens, UniProt P13569, DEL508-508); assay: TECC24 recording of CFTR-mediated transepithelial chloride transport in ΔF508 homozygous CF-HBE cells; format: cell-based; details: 10 μM test agent, 48 hours incubation, AUC of forskolin-stimulated IEQ divided by vehicle AUC, primary CF-HBE cells
T1 construct: Primary human bronchial epithelial cells from a ΔF508 homozygous CF donor; host or cells: primary human bronchial epithelial cells (CF-HBE), ΔF508 homozygous donor
T1 sequence (P13569 with tags, fused parts or gaps DEL508-508): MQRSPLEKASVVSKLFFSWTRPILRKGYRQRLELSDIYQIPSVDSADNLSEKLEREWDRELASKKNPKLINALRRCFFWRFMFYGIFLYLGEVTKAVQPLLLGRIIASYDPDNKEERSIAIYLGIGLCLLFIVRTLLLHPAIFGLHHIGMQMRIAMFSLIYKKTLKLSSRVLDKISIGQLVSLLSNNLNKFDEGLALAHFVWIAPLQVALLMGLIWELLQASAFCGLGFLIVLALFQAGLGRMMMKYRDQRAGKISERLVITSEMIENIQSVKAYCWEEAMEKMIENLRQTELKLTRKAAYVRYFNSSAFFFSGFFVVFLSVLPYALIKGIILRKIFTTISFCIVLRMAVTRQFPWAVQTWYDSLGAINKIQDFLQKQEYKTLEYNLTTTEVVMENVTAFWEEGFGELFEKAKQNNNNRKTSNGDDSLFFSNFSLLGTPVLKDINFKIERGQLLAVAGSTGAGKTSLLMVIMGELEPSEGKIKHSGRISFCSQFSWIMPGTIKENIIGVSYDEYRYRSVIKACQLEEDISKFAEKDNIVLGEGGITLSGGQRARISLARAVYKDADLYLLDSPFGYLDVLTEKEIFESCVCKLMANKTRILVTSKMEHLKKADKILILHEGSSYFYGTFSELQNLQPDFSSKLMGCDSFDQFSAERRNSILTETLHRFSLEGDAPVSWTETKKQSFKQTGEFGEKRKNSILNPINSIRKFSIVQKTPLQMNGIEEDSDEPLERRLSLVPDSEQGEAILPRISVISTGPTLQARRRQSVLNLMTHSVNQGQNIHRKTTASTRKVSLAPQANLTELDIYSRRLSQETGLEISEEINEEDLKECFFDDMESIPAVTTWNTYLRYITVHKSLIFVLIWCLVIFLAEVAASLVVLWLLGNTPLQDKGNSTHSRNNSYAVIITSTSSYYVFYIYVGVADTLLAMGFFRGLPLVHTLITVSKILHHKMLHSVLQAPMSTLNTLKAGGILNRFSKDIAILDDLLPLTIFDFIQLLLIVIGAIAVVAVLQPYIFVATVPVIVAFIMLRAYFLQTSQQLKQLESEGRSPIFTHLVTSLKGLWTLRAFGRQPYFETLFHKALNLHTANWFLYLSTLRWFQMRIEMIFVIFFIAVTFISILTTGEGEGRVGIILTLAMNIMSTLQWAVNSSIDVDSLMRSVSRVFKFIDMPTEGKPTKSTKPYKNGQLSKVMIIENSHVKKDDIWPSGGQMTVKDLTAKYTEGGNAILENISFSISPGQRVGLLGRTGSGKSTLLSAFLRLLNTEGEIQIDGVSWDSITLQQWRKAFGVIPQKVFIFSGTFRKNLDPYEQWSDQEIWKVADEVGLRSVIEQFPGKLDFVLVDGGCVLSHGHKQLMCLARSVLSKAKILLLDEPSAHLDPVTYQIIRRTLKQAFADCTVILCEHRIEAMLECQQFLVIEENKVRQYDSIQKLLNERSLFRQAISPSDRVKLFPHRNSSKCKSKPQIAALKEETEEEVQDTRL
Method: The effects of a test agent on CFTR-mediated transepithelial chloride transport was measured using TECC24 recording analysis. Test agents were solubilized in DMSO. Solubilized test agents were mixed with incubation medium containing DMEM/F12, Ultroser G (2%; Crescent Chemical, catalog #67042), Hyclone Fetal Clone II (2%; GE Healthcare, catalog #SH30066.02), bovine brain extract (0.25%; Lonza, catalog #CC-4098), insulin (2.5 μg/mL), IL-13 (10 ng/mL), hydrocortisone (20 nM), transferrin (2.5 μg/mL), triiodothyronine (500 nM), ethanolamine (250 nM), epinephrine (1.5 μM), phosphoethanolamine (250 nM), and retinoic acid (10 nM). Primary human bronchial epithelial cells from a ΔF508 homozygous CF donor (CF-HBE cells; from University of North Carolina Cystic Fibrosis Tissue Procurement Center), grown on Transwell HTS 24-well cell culture inserts (Costar, catalog #3378), were exposed to test agents or controls dissolved in incubation medium. The CF-HBE cells were cultured at 36.5° C. for 48 hours before TECC24 recordings were performed in the presence or absence of test agent, a positive control or vehicle (DMSO).
Following incubation, the transwell cell culture inserts containing the test agent or control-treated CF-HBE cells were loaded onto a TECC24 apparatus (TECC v7 or MTECC v2; EP Design) to record the transepithelial voltage (VT) and resistance (TEER) using 4 AgCl electrodes per well configured in current-clamp mode. The apical and basolateral bath solutions both contained (in mM) 140 NaCl, 5 KCl, 2 CaCl2, 1 MgCl2, 10 Hepes, and 10 glucose (adjusted to pH 7.4 with NaOH). To inhibit basal Na+ absorption, the ENaC inhibitor benzamil (10 μM) was added to the bath. Then, the adenylate cyclase activator, forskolin (10 μM), was added to the bath to activate CFTR. The forskolin-stimulated Cl— transport was halted by addition of CFTR inhibitor-172 (20 μM) to the bath at the end of the experiment to confirm specificity. VT and TEER recordings were digitally acquired at routine intervals using TECC or MTECC software (EP Design). VT and TEER were transformed into equivalent transpeithelial Cl— current (IEQ), and the Area Under the Curve (AUC) of the IEQ timecourse between forskolin and CFTR inhibitor-172 addition is generated using Excel (Microsoft). Efficacy is expressed as the ratio of the test agent AUC divided by vehicle AUC. EC50s based on AUC are generated using the non-linear regression log(agonist) vs. response function in Prism software (Graphpad) with HillSlope fixed=1.
If a test agent increased the AUC of the forskolin-stimulated IEQ relative to vehicle in CF-HBE cells, and this increase was inhibited by CFTR inhibitor-172, then the test agent was considered a CFTR corrector.

NBD1/3D = assay: Aggregation analysis using differential static light scattering (DSLS), NBD1 thermal stability; format: binding, Human; details: ΔTagg versus DMSO control; compound at 100 μM
Summary of the method: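 Thermal stabilisation reported as ΔTagg, i.e. aggregation temperature relative to averaged DMSO wells. Tagg came from the inflection of differential static light scattering imaged 25–70 °C while NBD1 (0.2 mg/ml, Tris pH 7.6 buffer containing ATP, MgCl2, DTT, glycerol) was ramped 1 °C/min.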

CC(C)(C)C(c1cccc(CCC(=O)O)c1)c1cnc(-c2cc(Oc3c(F)cc4[nH]ccc4c3F)ccc2F)[nH]1 (centres unmarked) [Example 277, 3-(3-(1-(2-(5-((4,6-difluoro-1H-indol-5-yl)oxy)-2-fluorophenyl)-1H-imidazol-5-yl)-2,2-dimethylpropyl)phenyl)propanoic acid]
TECC24 @ 10 μM over DMSO (AUC fold over DMSO) (CFTR): A (“A” refers to AUC @10 uM >= 12) | DSLS NBD1/3D Human Stability delta-T (° C.) @ 100 (μM) (NBD1/3D): B (B: 5-10° C.)

Cc1c(Oc2ccc(F)c(-c3ncc(Cc4cccc(CCC(=O)O)c4F)[nH]3)c2)c(F)cc2[nH]ccc12 [Example 119, 3-(2-fluoro-3-((2-(2-fluoro-5-((6-fluoro-4-methyl-1H-indol-5-yl)oxy)phenyl)-1H-imidazol-5-yl)methyl)phenyl)propanoic acid]
TECC24 @ 10 μM over DMSO (AUC fold over DMSO) (CFTR): C (“C” refers to AUC @ 10 uM <= 4) | DSLS NBD1/3D Human Stability delta-T (° C.) @ 100 (μM) (NBD1/3D): B (B: 5-10° C.)

CC(O)(c1cccc(CCC(=O)O)c1)c1cnc(-c2cc(Oc3c(F)c(F)c4[nH]ccc4c3C3CC3)ccc2F)[nH]1 (centres unmarked) [Example 205, 3-(3-(1-(2-(5-((4-cyclopropyl-6,7-difluoro-1H-indol-5-yl)oxy)-2-fluorophenyl)-1H-imidazol-5-yl)-1-hydroxyethyl)phenyl) propanoic acid]
TECC24 @ 10 μM over DMSO (AUC fold over DMSO) (CFTR): B (“B” refers to AUC @10 uM between 4-12) | DSLS NBD1/3D Human Stability delta-T (° C.) @ 100 (μM) (NBD1/3D): B (B: 5-10° C.)

O=C(O)CCc1cccc(C2(c3cnc(-c4cc(Oc5c(F)c(F)c6[nH]ccc6c5F)ccc4F)[nH]3)CCOCC2)c1 [Example 167, 3-(3-(4-(2-(2-fluoro-5-((4,6,7-trifluoro-1H-indol-5-yl)oxy)phenyl)-1H-imidazol-4-yl)tetrahydro-2H-pyran-4-yl)phenyl)propanoic acid]
TECC24 @ 10 μM over DMSO (AUC fold over DMSO) (CFTR): C (“C” refers to AUC @ 10 uM <= 4) | DSLS NBD1/3D Human Stability delta-T (° C.) @ 100 (μM) (NBD1/3D): A (A: T ≥ 10° C.)

O=C(O)CCc1cccc(Cc2c[nH]c(-c3cc(Oc4c(F)cc5[nH]ccc5c4F)ccc3F)n2)c1 [Example 118, 3-(3-((2-(5-((4,6-difluoro-1H-indol-5-yl)oxy)-2-fluorophenyl)-1H-imidazol-4-yl)methyl)phenyl)propanoic acid]
TECC24 @ 10 μM over DMSO (AUC fold over DMSO) (CFTR): B (“B” refers to AUC @10 uM between 4-12) | DSLS NBD1/3D Human Stability delta-T (° C.) @ 100 (μM) (NBD1/3D): B (B: 5-10° C.)

O=C(O)CCc1cccc(Cc2c[nH]c(-c3cc(Oc4c(F)cc5c(ccn5P(=O)(O)O)c4F)ccc3F)n2)c1F [Example 270, 3-(3-((2-(5-((4,6-Difluoro-1-phosphono-1H-indol-5-yl)oxy)-2-fluorophenyl)-1H-imidazol-4-yl)methyl)-2-fluorophenyl)propanoic acid]
TECC24 @ 10 μM over DMSO (AUC fold over DMSO) (CFTR): C (“C” refers to AUC @ 10 uM <= 4) | DSLS NBD1/3D Human Stability delta-T (° C.) @ 100 (μM) (NBD1/3D): C (C: ≤5° C.)

CC(c1c[nH]c(-c2cc(Oc3c(F)cc4[nH]ccc4c3S(C)(=N)=O)ccc2F)n1)c1cccc(CCC(=O)O)c1F (single isomer, unassigned) [Example 136C, 3-(2-fluoro-3-(1-(2-(2-fluoro-5-((6-fluoro-4-(S-methylsulfonimidoyl)-1H-indol-5-yl)oxy)phenyl)-1H-imidazol-4-yl)ethyl)phenyl)propanoic acid]
TECC24 @ 10 μM over DMSO (AUC fold over DMSO) (CFTR): A (“A” refers to AUC @10 uM >= 12) | DSLS NBD1/3D Human Stability delta-T (° C.) @ 100 (μM) (NBD1/3D): A (A: T ≥ 10° C.)

Cc1c(Oc2ccc(F)c(-c3ncc([C@H](C)c4cccc([C@@H]5C[C@H]5C(=O)O)c4F)[nH]3)c2)c(F)cc2[nH]ccc12 (single isomer, unassigned) [Example 139F, trans-2-(2-fluoro-3-(1-(2-(2-fluoro-5-((6-fluoro-4-methyl-1H-indol-5-yl)oxy)phenyl)-1H-imidazol-5-yl)ethyl)phenyl)cyclopropane-1-carboxylic acid]
TECC24 @ 10 μM over DMSO (AUC fold over DMSO) (CFTR): B (“B” refers to AUC @10 uM between 4-12) | DSLS NBD1/3D Human Stability delta-T (° C.) @ 100 (μM) (NBD1/3D): A (A: T ≥ 10° C.)

CC(c1c[nH]c(-c2cc(Oc3c(F)cc4[nH]ccc4c3S(C)(=O)=O)ccc2F)n1)c1cccc(CC(=O)O)c1F (single isomer, unassigned) [Example 84, 2-(2-fluoro-3-(1-(2-(2-fluoro-5-((6-fluoro-4-(methylsulfonyl)-1H-indol-5-yl)oxy)phenyl)-1H-imidazol-4-yl)ethyl)phenyl)acetic acid]
TECC24 @ 10 μM over DMSO (AUC fold over DMSO) (CFTR): B (“B” refers to AUC @10 uM between 4-12) | DSLS NBD1/3D Human Stability delta-T (° C.) @ 100 (μM) (NBD1/3D): A (A: T ≥ 10° C.)

CC(Cc1cccc(C(C)c2cnc(-c3cc(Oc4c(F)cc5[nH]ccc5c4F)ccc3F)[nH]2)c1F)C(=O)O (single isomer, unassigned) [Example 137D, 3-(3-(1-(2-(5-((4,6-difluoro-1H-indol-5-yl)oxy)-2-fluorophenyl)-1H-imidazol-5-yl)ethyl)-2-fluorophenyl)-2-methylpropanoic acid]
TECC24 @ 10 μM over DMSO (AUC fold over DMSO) (CFTR): A (“A” refers to AUC @10 uM >= 12) | DSLS NBD1/3D Human Stability delta-T (° C.) @ 100 (μM) (NBD1/3D): A (A: T ≥ 10° C.)

O=C(O)CCc1cccc(Cc2cnc(-c3cc(Oc4c(F)c(F)c5[nH]ccc5c4F)ccc3F)[nH]2)c1F [Example 121, 3-(2-fluoro-3-((2-(2-fluoro-5-((4,6,7-trifluoro-1H-indol-5-yl)oxy)phenyl)-1H-imidazol-5-yl)methyl)phenyl)propanoic acid]
TECC24 @ 10 μM over DMSO (AUC fold over DMSO) (CFTR): A (“A” refers to AUC @10 uM >= 12) | DSLS NBD1/3D Human Stability delta-T (° C.) @ 100 (μM) (NBD1/3D): B (B: 5-10° C.)

CNC(c1cccc(CCC(=O)O)c1)c1cnc(-c2cccc(Oc3c(F)cc4[nH]ccc4c3F)c2)[nH]1 (centres unmarked) [Example 266, 3-(3-((2-(3-((4,6-Difluoro-1H-indol-5-yl)oxy)phenyl)-1H-imidazol-5-yl)(methylamino)methyl)phenyl)propanoic acid]
TECC24 @ 10 μM over DMSO (AUC fold over DMSO) (CFTR): C (“C” refers to AUC @ 10 uM <= 4) | DSLS NBD1/3D Human Stability delta-T (° C.) @ 100 (μM) (NBD1/3D): A (A: T ≥ 10° C.)

[2H]c1c[nH]c2c(F)c(F)c(Oc3ccc(F)c(-c4nc(C(C#N)(c5cc(F)cc(CCC(=O)O)c5)C([2H])([2H])[2H])c[nH]4)c3)c(F)c12 (single isomer, unassigned) [Example 67B, 3-(3-(1-cyano-1-(2-(2-fluoro-5-((4,6,7-trifluoro-1H-indol-5-yl-3-d)oxy)phenyl)-1H-imidazol-4-yl)ethyl-2,2,2-d3)-5-fluorophenyl)propanoic acid]
TECC24 @ 10 μM over DMSO (AUC fold over DMSO) (CFTR): C (“C” refers to AUC @ 10 uM <= 4) | DSLS NBD1/3D Human Stability delta-T (° C.) @ 100 (μM) (NBD1/3D): B (B: 5-10° C.)

CC(C)(O)c1nc(-c2cc(Oc3c(F)cc4[nH]ccc4c3F)ccc2F)[nH]c1Cc1cccc(CCC(=O)O)c1F [Example 280, 3-(3-((2-(5-((4,6-Difluoro-1H-indol-5-yl)oxy)-2-fluorophenyl)-4-(2-hydroxypropan-2-yl)-1H-imidazol-5-yl)methyl)-2-fluorophenyl)propanoic acid]
TECC24 @ 10 μM over DMSO (AUC fold over DMSO) (CFTR): A (“A” refers to AUC @10 uM >= 12) | DSLS NBD1/3D Human Stability delta-T (° C.) @ 100 (μM) (NBD1/3D): B (B: 5-10° C.)

COCC(COC)(c1cccc(CCC(=O)O)c1)c1cnc(-c2cc(Oc3c(F)cc4[nH]ccc4c3F)ccc2F)[nH]1 [Example 171, 3-(3-(2-(2-(5-((4,6-Difluoro-1H-indol-5-yl)oxy)-2-fluorophenyl)-1H-imidazol-5-yl)-1,3-dimethoxypropan-2-yl)phenyl)propanoic acid]
TECC24 @ 10 μM over DMSO (AUC fold over DMSO) (CFTR): C (“C” refers to AUC @ 10 uM <= 4) | DSLS NBD1/3D Human Stability delta-T (° C.) @ 100 (μM) (NBD1/3D): A (A: T ≥ 10° C.)

O=C(O)CCc1cccc(C2(c3cnc(-c4cc(Oc5c(F)cc6[nH]ccc6c5F)ccc4F)[nH]3)CCN(CC(F)(F)F)CC2)c1 [Example 169, 3-(3-(4-(2-(5-((4,6-difluoro-1H-indol-5-yl)oxy)-2-fluorophenyl)-1H-imidazol-5-yl)-1-(2,2,2-trifluoroethyl)piperidin-4-yl)phenyl)propanoic acid]
TECC24 @ 10 μM over DMSO (AUC fold over DMSO) (CFTR): C (“C” refers to AUC @ 10 uM <= 4) | DSLS NBD1/3D Human Stability delta-T (° C.) @ 100 (μM) (NBD1/3D): B (B: 5-10° C.)
